Structures can show the parent of a compound that is named as a salt.
Biological target: T1, AR (Homo sapiens, UniProt P10275)
T1 construct: endogenous in cells; host or cells: VCaP cells
T1 sequence (P10275 1-920): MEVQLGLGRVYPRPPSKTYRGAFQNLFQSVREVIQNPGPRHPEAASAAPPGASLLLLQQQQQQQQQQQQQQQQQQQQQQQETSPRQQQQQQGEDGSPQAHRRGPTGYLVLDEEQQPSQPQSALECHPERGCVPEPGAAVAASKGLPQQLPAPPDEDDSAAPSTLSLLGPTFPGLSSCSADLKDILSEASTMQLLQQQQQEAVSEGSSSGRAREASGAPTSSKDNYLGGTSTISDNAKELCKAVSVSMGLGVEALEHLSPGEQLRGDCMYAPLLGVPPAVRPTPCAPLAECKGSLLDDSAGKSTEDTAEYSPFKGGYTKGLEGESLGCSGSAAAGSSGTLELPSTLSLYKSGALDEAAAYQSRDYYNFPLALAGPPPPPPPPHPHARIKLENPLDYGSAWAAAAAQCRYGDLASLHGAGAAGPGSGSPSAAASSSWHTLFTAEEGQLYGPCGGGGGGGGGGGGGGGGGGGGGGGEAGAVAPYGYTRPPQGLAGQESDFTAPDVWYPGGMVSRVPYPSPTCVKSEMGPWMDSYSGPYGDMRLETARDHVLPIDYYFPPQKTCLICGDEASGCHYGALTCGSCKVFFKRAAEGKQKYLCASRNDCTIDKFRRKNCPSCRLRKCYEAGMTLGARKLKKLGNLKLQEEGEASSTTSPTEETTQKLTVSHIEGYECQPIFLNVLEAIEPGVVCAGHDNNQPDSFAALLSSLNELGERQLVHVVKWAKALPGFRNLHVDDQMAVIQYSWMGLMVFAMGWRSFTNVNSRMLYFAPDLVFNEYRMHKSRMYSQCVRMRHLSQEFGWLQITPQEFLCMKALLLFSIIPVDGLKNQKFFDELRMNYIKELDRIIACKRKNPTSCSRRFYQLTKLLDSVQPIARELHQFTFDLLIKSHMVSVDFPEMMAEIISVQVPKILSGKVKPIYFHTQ
Experiment: VCAP AR Degradation Assay
Type: cell-based
Conditions: VCaP cells, 24 h; for DC50: AR ELISA, concentration when AR level = 50% of DMSO control; for Ymin: lowest AR level normalized to DMSO control
Procedure, shortened: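 Total AR in lysates was quantified by sandwich ELISA after 24 h compound exposure of VCaP cells (DMEM, 8% FBS, 37° C). Ten concentrations at 1:3 steps were used, top 5 μM, with 0.1% DMSO as reference.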

Row | Structure (SMILES) | DC50 [nM] | Ymin (given as numbers) | Ymin (class symbols)
1 | CC1(C)C(=O)N(c2cnc(C#N)c(C(F)(F)F)c2)C(=S)N1[C@H]1CC[C@H](OCCN2CCN(CC(=O)Nc3ccc(C4CCC(=O)NC4=O)cc3)[C@@H](C(F)(F)F)C2)CC1 (stereo partly drawn) [Cmpd 28, 2-((R)-4-(2-(((trans)-4-(3-(6-Cyano-5-(trifluoromethyl)pyridin-3-yl)-5,5-dimethyl-4-oxo-2-thioxoimidazolidin-1-yl)cyclohexyl)oxy)ethyl)-2-(trifluoromethyl)piperazin-1-yl)-N-(4-(2,6-dioxopiperidin-3-yl)phenyl)acetamide] | ≤ 5 | 20 % of DMSO control | 
2 | CC1(C)C(=O)N(c2ccc(C#N)c(C(F)(F)F)c2)C(=S)N1[C@H]1CC[C@H](OCCCN2CCN(CC(=O)Nc3cccc(C4CCC(=O)NC4=O)c3)[C@@H](C(F)(F)F)C2)CC1 (stereo partly drawn) [Cmpd 31, 2-((R)-4-(3-(((trans)-4-(3-(4-Cyano-3-(trifluoromethyl)phenyl)-5,5-dimethyl-4-oxo-2-thioxoimidazolidin-1-yl)cyclohexyl)oxy)propyl)-2-(trifluoromethyl)piperazin-1-yl)-N-(3-(2,6-dioxopiperidin-3-yl)phenyl)acetamide] | ≤ 5 | 21 % of DMSO control | 
3 | C[C@@H]1CN(CCCO[C@H]2CC[C@H](N3C(=S)N(c4ccc(C#N)c(Cl)c4)C(=O)C3(C)C)CC2)C[C@H](C)N1CC(=O)Nc1ccc(C2CCC(=O)NC2=O)cc1 (stereo partly drawn) [Cmpd 14, 2-((2R,6S)-4-(3-((trans-4-(3-(3-Chloro-4-cyanophenyl)-5,5-dimethyl-4-oxo-2-thioxoimidazolidin-1-yl)cyclohexyl)oxy)propyl)-2,6-dimethylpiperazin-1-yl)-N-(4-(2,6-dioxopiperidin-3-yl)phenyl)acetamide hydrochloride] | ≤ 5 |  | * (0<Y≤20%)
4 | C[C@@H]1CN(CCO[C@H]2CC[C@H](N3C(=S)N(c4ccc(C#N)c(C(F)(F)F)c4)C(=O)C3(C)C)CC2)C[C@H](C)N1CC(=O)Nc1ccc(N2CCC(=O)NC2=O)cc1 [Cmpd 1, 2-((2S,6R)-4-(2-((trans-4-(3-(4-Cyano-3-(trifluoromethyl)phenyl)-5,5-dimethyl-4-oxo-2-thioxoimidazolidin-1-yl)cyclohexyl)oxy)ethyl)-2,6-dimethylpiperazin-1-yl)-N-(4-(2,4-dioxotetrahydropyrimidin-1(2H)-yl)phenyl)acetamide hydrochloride] | 100 to 10000 |  | *** (30%<Y<80%)

Source: patent US20240368118A1, “CEREBLON BINDING COMPOUNDS, COMPOSITIONS THEREOF, AND METHODS OF TREATMENT THEREWITH” (CELGENE CORPORATION, priority 2021, published 2024)
